# Test results taken from patent US5677288A, “Use of aminoglycosides to protect against excitotoxic neuron damage” (Cypros Pharmaceutical Corporation, priority 1994, dated 1997).
# pIC50: −log10 of the molar value. Entries after “also recorded” stand apart in the source; their conditions may differ. Read-outs that look alike come from different tables or passages of the source.
# Assays:
# L-type Ca2+ channel = test: inhibition of tritiated dihydropyridine PN-200 binding to the L-type Ca2+ channel; settings: in words
# Protocol: These tests were carried out as follows. Brain tissue was used from rats or mice that had been anesthetized with halothane and decapitated. Membrane fractions were prepared as follows. Tissue samples were mixed with 25 tissue-volumes of 50 mM Tris-HCl buffer, pH 7.5. Tissue-buffer mixtures were homogenized using a Brinkman Polytron homogenizer, and resulting tissue homogenate was centrifuged at 2,400 g to pellet non-membrane derived material. The supernatant containing the brain membrane fragments was centrifuged at 30,000 g in a refrigerated (4° C.) centrifuge for 20 minutes. The pellet was resuspended in 100 tissue-volumes of the Tris-HCl buffer and centrifuged again as above. The process was repeated two more times, and the resulting pellet was resuspended in Tris-HCl buffer solution. The suspended tissue contained synaptosomal and other neurally derived membrane fragments with intact N-channels.
# [1] = test system: N-type calcium channels (N-channels); assay type: binding, rats or mice; settings: for pIC50: omega-conotoxin binding, brain membrane fragments, read-out: N-channel IC50
# [2] = test system: CA1 neurons in hippocampal tissue slices; test: protection of rat hippocampal tissue slices (CA1 population spike recovery) against hypoxia; assay type: cell-based, Sprague-Dawley rats
# blood platelets = test: inhibition of ADP-induced platelet aggregation; assay type: cell-based, human; settings: 20 μM ADP, approximate results from initial tests
# [3] = test system: N-channels on blood platelets; assay type: binding, human; settings: approximate results from initial tests, read-out: Conotoxin blockage
# [4] = test system: electroconvulsive seizures; test: electroconvulsive seizures (ECS) in mice; settings: ICV, scale one to six, six = no seizure activity
# Protocol: This was accomplished using a set of platinum electrodes placed subcutaneously in two skull regions of Swiss Webster (20-25 gram) mice. The stimulus voltage was 22 mv at a duration of 0.125 mSec.
# The seizures were graded on a severity scale of one to six. A score of six represented a complete absence of seizure activity, while a score of one represented the presence of a full tonic-clonic seizure with total hind leg extension. Test drugs were administered via the ICV route in a total volume of 2.5 microliters, 15 minutes prior to the administration of the electroconvulsive shock.
# PTZ-induced seizures [5] = test: PTZ-induced seizures in mice (ICV); assay type: in vivo, Swiss Webster mice; settings: for % having seizures: PTZ 70 mg/kg
# Protocol: In addition to the in vivo gerbil experiments described in Example 4, aminoglycosides were tested in various ways to evaluate their ability to inhibit experimentally-induced seizures in mice. In one set of tests, male Swiss Webster white mice weighing 20-25 grams were used. The animals (10 per group) were pre-injected with 3 microliters (μL) of either a saline solution (control group), or saline solution containing varying dosages of neomycin sulfate. The injection was performed via the […] route, to insure access of the neomycin to neurons; when these experiments were initially performed, questions concerning the ability of neomycin to penetrate the BBB had not yet been addressed. These injections were performed as described in Haley and McCormick 1957. Twenty minutes after the injections, the animals were administered a dose of 70 mg/kg of the convulsion-inducing drug pentylenetetrazol (PTZ), injected subcutaneously in saline solution. Control animals treated with ICV saline have full seizures within seven minutes following this dose of PTZ.
# PTZ-induced seizures [6] = settings: in words; not measured in these tests; cited from earlier work
# PTZ-induced seizures [7] = test: PTZ-induced seizures in rats (ICV or IP); settings: 2 mg/kg
# Protocol: Seizure studies were also performed in male Sprague Dawley rats (250-300 grams). In these studies, cannulas were implanted in the lateral cerebral ventricles of several animals so that the test drugs could be administered directly into the lateral ventricle of the brain. The drugs being tested were administered 15 minutes before the administration of a convulsant drug, PTZ, at a dose of 60 mg/kg (in a saline vehicle) injected subcutaneously.
# A second series of experiments was performed where neomycin sulfate was administered by the IP 30 minutes prior to PTZ injection.
compound,measurement,setting,value
NC[C@H]1O[C@H](O[C@H]2[C@H](O[C@@H]3O[C@H](CO)[C@@H](O)[C@H]3O)[C@@H](O)[C@H](N)C[C@@H]2N)[C@H](N)[C@@H](O)[C@@H]1O [Ribostamycin],L-channel IC50,L-type Ca2+ channel,No inhibition
Gentamicin,N-channel blocking potency (in words),[1],intermediate
same,N-channel blocking potency (in words),[1]; listed as gentamicin,most potent N-channel blockers
same,pIC50,[1],5.00
same,CA1 orthodromic PS recovery,"[2]; 2.5 mM, stimulated slices",60±23%
same,neuronal protection against hypoxia (summary),[2]; in words,restore orthodromic and antidromic activity; also recorded: high level of neuronal protection against hypoxia
same,pIC50,blood platelets,2.70
same,pIC50,[3],5.30
same,Seizure Score,[4]; 40 ug,4.9
Butirosin,pIC50,[1],3.82
NC[C@H]1O[C@H](O[C@H]2[C@H](O)[C@@H](O[C@H]3O[C@H](CO)[C@@H](O)[C@H](N)[C@H]3O)[C@H](N)C[C@@H]2N)[C@H](O)[C@@H](O)[C@@H]1O [Kanamycin],pIC50,[1],< 4.30
same,L-channel IC50,L-type Ca2+ channel,No inhibition
NC[C@@H]1O[C@H](O[C@H]2[C@@H](O)[C@H](O[C@@H]3[C@@H](O)[C@H](N)C[C@H](N)[C@H]3O[C@H]3O[C@H](CN)[C@@H](O)[C@H](O)[C@H]3N)O[C@@H]2CO)[C@H](N)[C@@H](O)[C@@H]1O.O=S(=O)(O)O [Neomycin Sulfate],% having seizures,PTZ-induced seizures [5]; 5 μg ICV,50%
same,% having seizures,PTZ-induced seizures [5]; 10 μg ICV,60%
same,protection against seizures,"PTZ-induced seizures [5]; five or ten micrograms ICV, in words",substantially protected against seizures
NCC[C@H](O)C(=O)N[C@@H]1C[C@H](N)[C@@H](O[C@H]2O[C@H](CN)[C@@H](O)[C@H](O)[C@H]2O)[C@H](O)[C@H]1O[C@H]1O[C@H](CO)[C@@H](O)[C@H](N)[C@H]1O [Amikacin],pIC50,[1],4.35
NC[C@@H]1O[C@H](O[C@H]2[C@@H](O)[C@H](O[C@@H]3[C@@H](O)[C@H](N)C[C@H](N)[C@H]3O[C@H]3O[C@H](CO)[C@@H](O)C[C@H]3N)O[C@@H]2CO)[C@H](N)[C@@H](O)[C@@H]1O[C@H]1O[C@H](CO)[C@@H](O)[C@H](O)[C@@H]1O [Lividomycin A],pIC50,[1],4.30
same,L-channel IC50,L-type Ca2+ channel,No inhibition
[H]/N=C(/N)N[C@H]1[C@H](O)[C@@H](O)[C@H](O[C@@H]2O[C@@H](C)[C@](O)(C=O)[C@H]2O[C@@H]2O[C@@H](CO)[C@H](O)[C@@H](O)[C@@H]2NC)[C@@H](N/C(N)=N\[H])[C@@H]1O [Streptomycin],N-channel blocking potency (in words),[1],low potency
same,N-channel blocking potency (in words),[1]; listed as streptomycin,somewhat less potent N-channel blocker
same,pIC50,[1],4.60
same,protection of CA1 antidromic population spikes,[2]; 10 mM,38±22%
same,neuronal protection against hypoxia (summary),[2]; in words,ineffective in reducing hypoxic damage to hippocampal tissue slices except when administered in high dosages; also recorded: only marginally effective and required high doses
same,neuronal protection against hypoxia (summary),"[2]; in words, listed as streptomycin",some potency but at substantially lower levels; also recorded: lower degree of neuroprotection
same,pIC50,"blood platelets; Homo sapiens, Platelet",2.30
same,pIC50,[3],4.82
same,L-channel IC50,L-type Ca2+ channel,No inhibition
NC[C@@H]1CC[C@@H](N)[C@@H](O[C@H]2[C@H](O)[C@@H](O[C@H]3O[C@H](CO)[C@@H](O)[C@H](N)[C@H]3O)[C@H](N)C[C@@H]2N)O1 [Dibekacin],pIC50,[1],4.22
same,L-channel IC50,L-type Ca2+ channel,No inhibition
CNC1C(O)C(NC)C2OC3(O)C(=O)CC(C)OC3OC2C1O (stereo not drawn) [Spectiomycin],pIC50,[1],< 3.00
NC[C@H]1O[C@H](O[C@H]2[C@H](O)[C@@H](O)[C@H](N)C[C@@H]2N)[C@H](N)[C@@H](O)[C@@H]1O [Neamine],pIC50,[1],4.60
"OC[C@H]1O[C@@H](n2cnc3c(NC4CCCCC4)ncnc32)[C@H](O)[C@@H]1O [Cyclohexyladenosine, cyclohexyladenosine]",% having seizures,PTZ-induced seizures [5]; 2 μg,40%
same,behavioral side effects,PTZ-induced seizures [5]; in words,"various behavioral side effects such as ataxia (lack of muscular control, as evidenced by an inability to walk properly) and sedation"
same,known cardiovascular side effects,PTZ-induced seizures [6],known to provoke hypotension and bradycardia
CN[C@H]1C[C@@H](N)[C@H](O)[C@@H](O[C@@H]2O[C@H](CO)[C@H](O)[C@@H]3OC4(O[C@H]23)O[C@H]([C@@H](N)CO)[C@H](O)[C@H](O)[C@H]4O)[C@@H]1O (stereo partly drawn) [Hygromycin B],pIC50,[1],< 3.00
C[C@H]1O[C@H](O[C@H]2[C@H](O)[C@@H](O)[C@@H](O)[C@H](O)[C@@H]2O)[C@@H](N)C[C@@H]1NC(=N)C(=O)O [Kasugamycin],pIC50,[1],< 3.00
CN[C@@H]1[C@@H](O)[C@@H](O[C@@H]2[C@@H](O)[C@H](O[C@H]3OC(CN)=CC[C@H]3N)[C@@H](N)C[C@H]2N)OC[C@]1(C)O [Sisomicin],N-channel blocking potency (in words),[1],high potency
same,N-channel blocking potency (in words),[1]; listed as sisomicin,most potent N-channel blockers
same,pIC50,[1],5.00 to 5.30
same,CA1 antidromic PS amplitude recovery,"[2]; 1.0 mM, stimulated slices",70±15%
same,CA1 orthodromic PS amplitude recovery,"[2]; 1.0 mM, stimulated slices",76±9%
same,CA1 antidromic PS recovery,"[2]; 1.0 mM, unstimulated slices",93±3%
same,CA1 orthodromic PS recovery,"[2]; 1.0 mM, unstimulated slices",93±3%
same,hypoxic injury potential (HIP) profile,[2]; in words,HIP profiles evolved with a time course similar to untreated slices
same,neuronal protection against hypoxia (summary),[2]; in words,restore orthodromic and antidromic activity; also recorded: high level of neuronal protection against hypoxia
same,L-channel IC50,L-type Ca2+ channel,No inhibition
NC[C@@H]1O[C@H](O[C@H]2[C@@H](O)[C@H](O[C@@H]3[C@@H](O)[C@H](N)C[C@H](N)[C@H]3O[C@H]3O[C@H](CO)[C@@H](O)[C@H](O)[C@H]3N)O[C@@H]2CO)[C@H](N)[C@@H](O)[C@@H]1O [Paromomycin],pIC50,[1],4.40
same,L-channel IC50,L-type Ca2+ channel,No inhibition
CNC1C(OC2C(OC3C(O)C(O)C(N=C(N)N)C(O)C3N=C(N)N)OC(C)C2(O)CO)OC(CO)C(O)C1O (stereo not drawn) [Dihydrostreptomicin],pIC50,[1],< 4.30
NC[C@H]1O[C@H](O[C@H]2[C@H](O)[C@@H](O[C@H]3O[C@H](CO)[C@@H](O)[C@H](N)[C@H]3O)[C@H](N)C[C@@H]2N)[C@H](N)[C@@H](O)[C@@H]1O [Bekanamycin],pIC50,[1],< 4.00
same,L-channel IC50,L-type Ca2+ channel,No inhibition
CN1C(=O)CN=C(c2ccccc2)c2cc(Cl)ccc21 [Diazepam],% having seizures,PTZ-induced seizures [7],75%
same,Seizure Score,[4]; 5 ug,4.4
NC[C@H]1O[C@H](O[C@H]2[C@H](O)[C@@H](O[C@H]3O[C@H](CO)[C@@H](O)[C@H](N)[C@H]3O)[C@H](N)C[C@@H]2N)[C@H](N)C[C@@H]1O [Tobramycin],pIC50,[1],< 4.30
